Results on 16 compounds are retold here after ChEMBL document CHEMBL1152586, “Neuraminidase inhibitory activities of flavonols isolated from Rhodiola rosea roots and their in vitro anti-influenza viral activities” (Bioorg Med Chem, 2009).

The nature of series [1]: Selectivity index, ratio of CC50 for MDCK cells to EC50 for influenza virus H9N2 A/Chicken/Korea/MS96/96. To be noted: dog, read-out: Ratio CC50/EC50. The class given is toxicity, cell-based.
Series [2] is described as follows: Cytotoxicity against MDCK cells after 48 hrs by MTT assay. The class given is cell-based, Canis lupus familiaris. As to conditions: dog.
A further series has as its target Neuraminidase (Influenza A virus, UniProt B4URF0). Description: Noncompetitive inhibition of recombinant influenza A virus rvH1N1 A/Bervig_Mission/1/18 neuraminidase.
For series [3], the system named is Influenza A virus. Description: Antiviral activity against influenza A virus H1N1 A/PR/8/34 infected in MDCK cells assessed as reduction in virus-induced cytopathic effect. The class given is functional, organism-based. To be noted: A/Puerto Rico/8/1934(H1N1).
Series [4] in a line: Selectivity index, ratio of CC50 for MDCK cells to EC50 for influenza virus H1N1 A/PR/8/34. The class given is toxicity, cell-based. To be noted: dog, read-out: Ratio CC50/EC50.
For series [5], the system named is Influenza A virus. Description: Antiviral activity against influenza A virus H9N2 A/Chicken/Korea/MS96/96 infected in MDCK cells assessed as reduction in virus-induced cytopathic effect. The class given is functional, organism-based. As to conditions: A/Chicken/Korea/MS96/96, MDCK.
Another series addresses T1, Sialidase (Clostridium perfringens, UniProt P10481).
T1 sequence (P10481 whole entry): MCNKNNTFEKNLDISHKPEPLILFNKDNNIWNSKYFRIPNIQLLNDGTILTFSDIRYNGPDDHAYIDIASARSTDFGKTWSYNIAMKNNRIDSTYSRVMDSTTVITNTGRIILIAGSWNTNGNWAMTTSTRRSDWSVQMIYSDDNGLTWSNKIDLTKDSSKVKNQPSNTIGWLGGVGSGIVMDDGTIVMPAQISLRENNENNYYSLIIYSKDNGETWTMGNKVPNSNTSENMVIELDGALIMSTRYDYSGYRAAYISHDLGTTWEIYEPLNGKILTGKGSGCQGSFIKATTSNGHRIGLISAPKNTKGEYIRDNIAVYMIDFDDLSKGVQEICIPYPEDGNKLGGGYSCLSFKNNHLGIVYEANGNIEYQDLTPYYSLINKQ
Description: Inhibition of Clostridium perfringens neuraminidase.

For series [6], the system named is Influenza A virus. The experiment in a line: Antiviral activity against influenza A virus H1N1 A/PR/8/34 infected in MDCK cells assessed as reduction in fluorescence positive cells at 50 uM immunofluorescence assay. The class given is functional, organism-based. To be noted: A/Puerto Rico/8/1934(H1N1).

Structures are written as SMILES. Active and inactive are the calls of the source. No cut-off for these calls is given here. A value given as a limit tells only on which side of the number the result lay.

Consider `O=c1cc(-c2ccc(O)cc2)oc2cc(O)cc(O)c12` [APIGENIN], for which the selectivity ratio in series [1] is greater than 7.03; in series [4], greater than 4.97. In series [2], this compound came in with a cytotoxic concentration (CC50) at 48 h greater than 300 µM. For the same compound, the half-maximal inhibitory concentration (IC50) at Neuraminidase came out at 33.4 µM. Further, at Neuraminidase, the inhibitory constant (Ki) is 37.1 µM. Also, the half-maximal effective concentration (EC50) in the series with Influenza A virus [3] is 60.4 µM; in the series on Influenza A virus [5] it was 42.7 µM.

`O=c1cc(-c2ccc(O)cc2)oc2cc(O[C@@H]3O[C@H](CO)[C@@H](O)[C@H](O)[C@H]3O)cc(O)c12` [APIGETRIN]: at Neuraminidase, the IC50 turned out to be 46.9 µM and the Ki turned out to be 53.8 µM. Moreover, the half-maximal inhibitory concentration (IC50) against Sialidase is 39.3 µM.

Regarding `O=c1c(O[C@@H]2O[C@H](CO)[C@@H](O)[C@H](O)[C@H]2O)c(-c2ccc(O)cc2)oc2cc(O)cc(O)c12` [ASTRAGALIN], the selectivity ratio in series [1] was greater than 4.85; in series [4], greater than 7.5. The same compound showed a CC50 at 48 h in series [2] greater than 300 µM. The IC50 at Neuraminidase was 38.4 µM; against Sialidase it was 29.4 µM. The Ki on Neuraminidase was determined as 33 µM. The EC50 in the series with Influenza A virus [3] turned out to be 40 µM; with Influenza A virus [5], 61.9 µM.

For the compound `O=c1c(O)c(-c2ccc(O)c(O)c2)oc2c(O)c(O)cc(O)c12` [GOSSYPETIN], the selectivity ratio in series [1] was determined as 7.8; in series [4], 6.58. This compound also returned a CC50 at 48 h in series [2] of 283 µM. Also, the half-inhibitory concentration (IC50) at Neuraminidase is 2.6 µM; against Sialidase, 0.8 µM. The Ki at Neuraminidase was determined as 7.7 µM. Further, the values for the EC50 in the series with Influenza A virus [3] and in the series on Influenza A virus [5] were 43 µM and 36.3 µM, respectively.

Take `O=c1c(O)c(-c2ccc(O)cc2)oc2c(O)c(O)cc(O)c12` [HERBACETIN]: the selectivity ratio was determined as 12.8 in series [1] and 8.39 in series [4]. The same compound returned a CC50 at 48 h in series [2] of 294 µM. The IC50 worked out at 8.9 µM at Neuraminidase and 1.4 µM on Sialidase. Besides, at Neuraminidase, the Ki turned out to be 13.7 µM. In addition, the values for the concentration for a half-maximal effect (EC50) with Influenza A virus [3] and in the series on Influenza A virus [5] were 35 µM and 23 µM, respectively.

On to `O=c1c(O)c(-c2ccc(O)cc2)oc2cc(O)cc(O)c12` [KAEMPFEROL], for which the selectivity ratio in series [1] was greater than 16.2; in series [4], greater than 9.93. The same compound had a 50% cytotoxic concentration (CC50) at 48 h in series [2] greater than 300 µM. For the same compound, the IC50 stood at 11.2 µM at Neuraminidase and 8 µM on Sialidase. Also, the inhibitory constant (Ki) at Neuraminidase was determined as 21.1 µM. Also, in the series on Influenza A virus [6], the result was Active. Also, the EC50 came out at 30.2 µM in the series on Influenza A virus [3] and 18.5 µM with Influenza A virus [5].

As for `O=c1c(O[C@@H]2O[C@H](CO)[C@@H](O)[C@H](O)[C@H]2O)c(-c2ccc(O)cc2)oc2c(O[C@@H]3O[C@H](CO)[C@@H](O)[C@H](O)[C@H]3O)c(O)cc(O)c12` [LINOCINAMARIN], the selectivity ratio in series [1] is greater than 3; in series [4], greater than 3.03. The CC50 at 48 h in series [2] was greater than 300 µM. For the same compound, the IC50 on Neuraminidase turned out to be 44.2 µM; on Sialidase it was 39.1 µM. In addition, at Neuraminidase, the inhibitory constant (Ki) is 63.8 µM. Besides, the concentration for a half-maximal effect (EC50) in the series on Influenza A virus [3] amounted to 99.1 µM; with Influenza A virus [5], 100 µM.

Take `O=c1cc(-c2ccc(O)c(O)c2)oc2cc(O)cc(O)c12` [LUTEOLIN]: the selectivity ratio in series [1] came to 1.6; in series [4] it was 1.96. In series [2], this compound gave a CC50 at 48 h of 165 µM. Further, the concentration for half-maximal inhibition (IC50) on Neuraminidase stood at 11 µM; at Sialidase it was 4.3 µM. The Ki at Neuraminidase turned out to be 19.6 µM. Moreover, the EC50 was 84 µM with Influenza A virus [3] and 103 µM in the series on Influenza A virus [5].

Regarding `C[C@@H]1O[C@@H](OC[C@H]2O[C@@H](Oc3c(-c4ccc(O)cc4)oc4cc(O)cc(O)c4c3=O)[C@H](O)[C@@H](O)[C@@H]2O)[C@H](O)[C@H](O)[C@H]1O` [NICOTIFLOROSIDE], the figures for the selectivity ratio in series [1] and in series [4] were greater than 4.12 and greater than 7.48, respectively. This compound also had a CC50 at 48 h in series [2] greater than 300 µM. For the same compound, the figures for the IC50 at Neuraminidase and at Sialidase were 31.7 µM and 55.5 µM, respectively. Also, the inhibition constant (Ki) on Neuraminidase turned out to be 32.7 µM. For the same compound, the half-maximal effective concentration (EC50) in the series with Influenza A virus [3] stood at 40.1 µM; in the series on Influenza A virus [5], 72.9 µM.

On to `CCOC(=O)C1=C[C@@H](OC(CC)CC)[C@H](NC(C)=O)[C@@H](N)C1` [OSELTAMIVIR], for which the cytotoxic concentration (CC50) at 48 h in series [2] is greater than 300 µM. The result in the series with Influenza A virus [6] was Active. Also, the EC50 in the series with Influenza A virus [3] came to 8.3 µM; with Influenza A virus [5], 6.25 µM.

On to `O=c1c(O)c(-c2ccc(O)c(O)c2)oc2cc(O)cc(O)c12` [QUERCETIN], for which the selectivity ratio in series [1] is 1.9; in series [4] it was 5.89. Further, the CC50 at 48 h in series [2] amounted to 254 µM. The half-maximal inhibitory concentration (IC50) on Neuraminidase came to 2.2 µM; on Sialidase, 1.7 µM. Besides, the inhibition constant (Ki) on Neuraminidase was determined as 3.8 µM. For the same compound, the EC50 came out at 43.1 µM with Influenza A virus [3] and 134 µM in the series with Influenza A virus [5].

Regarding `COc1cc([C@H]2Oc3cc(O)c4c(=O)c(O)c(-c5ccc(O)cc5)oc4c3O[C@@H]2CO)ccc1O` [RHODIOLININ], the selectivity ratio in series [1] was greater than 10.2; in series [4] it was greater than 7.19. In series [2], this compound showed a CC50 at 48 h greater than 300 µM. The concentration for half-maximal inhibition (IC50) at Neuraminidase worked out at 10.3 µM; against Sialidase it was 6.1 µM. Further, the Ki at Neuraminidase was 14.1 µM. In addition, the values for the EC50 with Influenza A virus [3] and with Influenza A virus [5] were 41.7 µM and 29.3 µM, respectively.

Regarding `C[C@@H]1OC(Oc2cc(O)c3c(=O)c(O)c(-c4ccc(O)cc4)oc3c2O)[C@H](O)[C@H](O)[C@H]1O` (stereo partly specified) [RHODIONIN], the selectivity ratio was greater than 6.05 in series [1] and greater than 4.01 in series [4]. The compound also had a CC50 at 48 h in series [2] greater than 300 µM. The half-maximal inhibitory concentration (IC50) at Neuraminidase worked out at 32.2 µM; against Sialidase, 40.6 µM. Further, at Neuraminidase, the Ki stood at 59.4 µM. For the same compound, the EC50 is 74.8 µM with Influenza A virus [3] and 49.6 µM with Influenza A virus [5].

`C[C@@H]1O[C@@H](Oc2cc(O)c3c(=O)c(O)c(-c4ccc(O)cc4)oc3c2O)[C@H](O)[C@H](O[C@@H]2O[C@H](CO)[C@@H](O)[C@H](O)[C@H]2O)[C@H]1O` [RHODIOSIN]: the selectivity ratio was determined as 8.47 in series [1] and 3.63 in series [4]. The same compound registered a CC50 at 48 h in series [2] of 297 µM. In addition, the half-maximal inhibitory concentration (IC50) amounted to 56.5 µM at Neuraminidase and 56.9 µM against Sialidase. Besides, the inhibitory constant (Ki) at Neuraminidase came out at 64.1 µM.

As to `C[C@@H]1O[C@@H](Oc2cc(O)c3c(=O)c(O)c(-c4ccc(O)cc4)oc3c2O)[C@H](O)[C@H](O[C@H]2O[C@@H](CO)[C@H](O)[C@@H](O)[C@@H]2O)[C@H]1O` [RHODIOSIN], the EC50 with Influenza A virus [3] stood at 81.9 µM; in the series with Influenza A virus [5], 35.1 µM.

As for `C[C@@H]1O[C@@H](OC[C@H]2O[C@@H](Oc3c(-c4ccc(O)c(O)c4)oc4cc(O)cc(O)c4c3=O)[C@H](O)[C@@H](O)[C@@H]2O)[C@H](O)[C@H](O)[C@H]1O` [RUTIN], on Neuraminidase, the concentration for half-maximal inhibition (IC50) worked out at 34.4 µM and the inhibitory constant (Ki) was found to be 33.8 µM. This compound also registered an IC50 against Sialidase of 30.9 µM.
